# Measurements from US10618886B1, “Compounds as neuronal histamine receptor-3 antagonists and uses thereof” (XW LABORATORIES INC., priority 2018, dated 2020).
# Legend:
# [1] = molecular target: T1, histamine H3 receptor (hH3R) (Homo sapiens (Human), UniProt Q9Y5N1); experiment: [35S]-GTPγS binding assay, inverse agonist mode, HEK293/Ga15/hH3R membranes; type: biochemical; conditions: no agonist, 10 points, 3-fold dilution from 1 μM
# Description: (§1) The histamine H3 receptors mediate the histamine signals in CNS and peripheral nervous system. Histamine H3 receptors couple directly to a Gi/Go, resulting in subsequent GTPγδ binding. Although GTPγδ binding assays are carried out using membrane preparations in the similar way as radioligand binding assays, these are functional assays and can be used to differentiate agonist, antagonist, and inverse agonist activities. Such assays are carried out using [^35S]-guanosine-5′-O-(3-thio) triphosphate which provides a radioactive ligand with high affinity for G-protein a subunits that is highly resistant to the inherent GTPase activity of a subunits, such that it remains bound for sufficient periods of time to allow counting of radioactivity. The GTPγδ binding assay was performed using HEK293/Ga15/hH3R cell line with high histamine H3 receptors expression to determine H3 receptor GTPγδ binding affinity of representative compounds.
# (§2) 1. [^35S]-GTPγδ binding assay for determining antagonist and inverse agonist pharmacological parameters of histamine H3 receptor ligands:
# (§3) Experimental procedure: 1) Membrane preparation for HEK293/Ga15/hH3R; 2) Standard binding assay. Briefly, for membrane […], HEK293/Ga15/hH3R cells were grown to confluence, harvested and the cell pellets were suspended in TEL buffer (50 mM Tris-HCl buffer, 1 mM EGTA, 0.1 mM PMSF). Homogenate and centrifuge at 1,000 g for 10 min. Centrifuge the supernatant at 46,000 g for 30 min. Suspend the membrane pellet in 50 mM Tris with 0.32 M sucrose, pH 7.0. Aliquot at 1 mg protein/mL. Keep frozen and store at −80° C. until use. All compounds were prepared by dissolving in DMSO to make 10 mM stock. The 10 mM stock was used as top concentration […] to carry out 10-points, 3-fold dilution scheme using DMSO in a 96-well plate to make the compound dose plate. H3R GTPγδ binding assay was performed as followings: thaw the membrane at 37° C., chill on ice, add GDP and the membrane to assay buffer (50 mM Tris-HCl, 100 mM NaCl, 5 mM MgCl2, pH 7.4, and 0.2%, BSA). Stay on ice for 20 min. […] Add 20 μL [^35S]-GTPγδ (final 200 pM) and incubate at room temperature for 60 min. For antagonist mode: Add 20 μL agonist (R-alpha-methylhistamine, final concentration 1 μM), 20 μL testing compound (final top concentration 1 μM, 3-fold dilution, 10 points), 20 μL [^35S]-GTPγδ (final 200 pM), 140 μL membrane solution (total 200 μL, GDP 10μM, membrane protein 20 μg/well) to the assay plate. Incubate at room temperature for 60 min. Filter the assay plate on GF/C (non-PEI coated) plate to stop the assay. Dry GF/C plate for 1 h. Add 50 μL scintillation fluid and count on the MicroBeta.
# (§4) Data Analysis: The CPM values were calculated into % of inhibition with the following formula:
# For inverse agonist mode: % of inhibition=(DMSO control CPM−Compound CPM)/(DMSO control CPM−GTP control CPM)×100.
# (§5) IC50s were calculated using Prism5 with log(inhibitor) vs. response equation.
# [2] = molecular target: T1, histamine H3 receptor (hH3R); experiment: [35S]-GTPγS binding assay, antagonist mode, HEK293/Ga15/hH3R membranes; type: biochemical; conditions: agonist R-alpha-methylhistamine 1 μM, 10 points, 3-fold dilution from 1 μM
# Description: as §1, §2, §3, §4
# For antagonist mode: % of inhibition=(R-alpha-methyl-histamine control CPM−Compound CPM)/(R-alpha-methyl-histamine control CPM−DMSO control CPM)×100.
# as §5
# T1 sequence (Q9Y5N1 whole entry): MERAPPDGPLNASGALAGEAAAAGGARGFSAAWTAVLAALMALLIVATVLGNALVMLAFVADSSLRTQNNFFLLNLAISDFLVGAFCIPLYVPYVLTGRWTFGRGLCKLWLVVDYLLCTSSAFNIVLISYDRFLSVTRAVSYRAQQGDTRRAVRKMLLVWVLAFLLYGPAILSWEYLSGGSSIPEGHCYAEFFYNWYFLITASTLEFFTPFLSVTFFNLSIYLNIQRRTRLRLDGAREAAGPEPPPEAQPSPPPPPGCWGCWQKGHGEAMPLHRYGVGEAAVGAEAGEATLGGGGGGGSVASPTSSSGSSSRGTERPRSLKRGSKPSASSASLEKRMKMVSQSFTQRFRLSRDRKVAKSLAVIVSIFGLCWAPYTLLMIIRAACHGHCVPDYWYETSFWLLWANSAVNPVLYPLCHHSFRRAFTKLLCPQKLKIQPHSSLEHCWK
Structure (SMILES),IC50 [1],IC50 [2]
"Cc1nc2ccc(S(F)(F)(F)(F)F)cc2c(=O)n1-c1ccc(OC2CCN(C(=O)C3CCCCC3)CC2)cc1 [XIX, 3-(4-((1-(cyclohexanecarbonyl)piperidin-4-yl)oxy)phenyl)-2-methyl-6-(pentafluorosulfanyl)quinazolin-4(3H)-one]",> 1000 nM,> 1000 nM
"Cc1nc2ccc(S(F)(F)(F)(F)F)cc2c(=O)n1-c1ccc(OC2CCN(C(=O)C3CCN(C)CC3)CC2)cc1 [XX, 2-methyl-3-(4-((1-(1-methylpiperidine-4-carbonyl)piperidin-4-yl)oxy)phenyl)-6-(pentafluorosulfanyl)quinazolin-4(3H)-one]",50.5 nM,814 nM
"COc1cc(OCCCN2CCCC2)ccc1-n1c(C)nc2ccc(S(F)(F)(F)(F)F)cc2c1=O [VI, 3-(2-methoxy-4-(3-(pyrrolidin-1-yl)propoxy)phenyl)-2-methyl-6-(pentafluorosulfanyl)quinazolin-4(3H)-one]",5.5 nM,5.36 nM
"Cc1nc2ccc(S(F)(F)(F)(F)F)cc2c(=O)n1-c1ccc(OCCCN2CCC(C)C2)cc1 (centres unmarked) [VII, 2-methyl-3-(4-(3-(3-methylpyrrolidin-1-yl)propoxy)phenyl)-6-(pentafluorosulfanyl)quinazolin-4(3H)-one]",10.5 nM,3.44 nM
"Cc1nc2ccc(S(F)(F)(F)(F)F)cc2c(=O)n1-c1ccc(OC2CCN(C(=O)C3CCOCC3)CC2)cc1 [XXI, 2-methyl-3-(4-((1-(tetrahydro-2H-pyran-4-carbonyl)piperidin-4-yl)oxy)phenyl)-6-(pentafluorosulfanyl)quinazolin-4(3H)-one]",286 nM,> 1000 nM
"COc1cc(OC2CCN(C(=O)C3CCOCC3)CC2)ccc1-n1c(C)nc2ccc(S(F)(F)(F)(F)F)cc2c1=O [XXII, 3-(2-methoxy-4-((1-(tetrahydro-2H-pyran-4-carbonyl)piperidin-4-yl)oxy)phenyl)-2-methyl-6-(pentafluorosulfanyl)quinazolin-4(3H)-one]",229 nM,242 nM
Cc1nc2ccc(S(F)(F)(F)(F)F)cc2c(=O)n1-c1ccc(OC2CCN(C3CCCC3)CC2)cc1 [XVI],175 nM,116 nM
